In US20100221315A1, “VESICULAR FORMULATIONS CONTAINING ORGANIC ACID PRODRUGS, PROCESS FOR THEIR PREPARATION” (UNIVERSIDADE DE LISBOA, priority 2006, published 2010):
Values after ≈ are worked out from the molar mass of the structure shown. Read-outs that look alike come from different tables or passages of the source.

Tests used:
[1] = Incorporation efficiency (EE) in liposomes prepared by hydration of a lipid and drugs film; assay type: physicochemical
Protocol: Different lipids (20 μmol) and the prodrug (2 μmol) were weighed out, transferred to a round-bottom flask, dissolved in chloroform and the organic solvent evaporated using a rotating evaporator to form a lipid film. This film was then dried in a vacuum bomb for the removal of chloroform residues and 1 ml of isotonic phosphate pH 7.4 buffer (PBS) was added at a temperature at least 10° C. higher than the phase transition temperature (TC) of the lipids used. The mixture was stirred for an additional five minutes to complete hydration of the lipid film and, after a few minutes at rest, it was stirred again for a further five minutes.
In order to determine the incorporation efficiency (EE), aliquots of the liposomal suspension after hydration and of the liposomal suspension obtained after centrifugation, supernatant removal and re-suspension of the sediment in its original volume (before being centrifuged) were collected. The EEs were calculated as the ratio between the prodrug concentration in the re-suspended liposome suspension and the prodrug concentration in the initial liposome suspension. Tables 2 to 6 show the EE values obtained for several formulations of different prodrugs.
All the prepared suspensions were checked using an optical phase contrast microscope set at 400× magnification.

[2] = Incorporation efficiency (EE) in liposomes prepared by hydration of a lipid and prodrugs lyophilisate; assay type: physicochemical; details: hydration of lipids and prodrugs lyophilisate
Protocol: Solutions were prepared containing 20 μmol of lipids and 2 μmol of prodrug in 10 ml of tert-butanol and were filtered by sterile filtration. These solutions were then frozen in liquid nitrogen and lyophilised for 24 hours.
After lyophilisation, the solutions were hydrated by the addition of 1 ml of PBS at a temperature of at least 10° C. higher than that of the phase transition temperature (TC) of the lipids, using an ultrasound water bath for two minutes. The incorporation efficiencies (EE) were calculated as described above for the liposome preparation carried out by hydration of a lipid film and are shown in Table 7.
All the suspensions produced were checked using an optical microscope set at 400× magnification.

[3] = in vitro; assay type: in vitro ADME; details: human, plasma
Protocol: 750 μl of plasma, 700 μl of PBS and 50 μl of stock solution of the compound (3.6×10^−3M) were added to each one of the test compounds in the free form in a test tube. The tube was incubated at 37° C. under agitation, and 150 μl aliquots were removed every five minutes, diluted with 600 μl of acetonitrile (ACN), and then centrifuged. The supernatant was removed and injected into an HPLC system. The area values obtained for each chromatogram were used to determine the half-life of each prodrug.
To each liposomal suspension in a test tube, 750 μl of plasma was added and diluted with PBS to a final volume of 3000 μl. The final drug concentration in each tube was 2×10^−3 M. The test tubes were then incubated at 37° C. with agitation and 150 μl aliquots were then removed at set time intervals, diluted with 600 μl of acetonitrile (ACN), and then centrifuged. For the remainder of the process, the same procedure was followed as described above for the free form case.

[4] = in vitro; assay type: in vitro ADME; details: rat, tissue homogenate
Protocol: For each of the compounds in free form, 50 μl of rat liver homogenate, 1400 μl of PBS and 50 μl of compound stock solution were added (3.6×10^−3 M) in a test tube. The tubes were incubated at 37° C. under agitation, and aliquots of 150 μl were removed every minute, diluted with 600 μl of acetonitrile (ACN), and then centrifuged. The supernatant was removed and placed into the vials of an autosampler and analysed by HPLC.
To each liposomal suspension in a test tube, 50 μl of homogenate was added and diluted with PBS to a final volume of 1500 μl. The final drug concentration was 2×10^−3 M. The test tubes were incubated at 37° C. under agitation and sample collection and analysis were carried out by the same procedure used for determining the stability of liposomal drugs in plasma.

[5] = tested on: Mycobacterium tuberculosis H37Ra; experiment: Determination of the Minimum Inhibitory Concentration (MIC) by successive dilutions; assay type: cell-based; details: for MIC: broth, pH 5.5, about 21 days at 37° C.; for fold lower MIC values than those for PZA and POA: in vitro, pH 5.5
Protocol: Mycobacterium tuberculosis H37Ra was used as the reference strain. The esters C12, C14 and C16, pyrazinamide (PZA) and pyrazinoic acid (POA) were prepared in stock solutions of dimethyl sulfoxide (DMSO) at a concentration of 8 mg/ml. The Minimum Inhibitory Concentration was determined by the method of successive dilutions. The culture medium Myco (nutrient Broth-Difco, 10 g/L; Middlebrook 7H9-Difco, 10 g/L, 0,05% glucose and 0.01% of Tween 80) supplemented with OADC (Difco) was used and the pH was adjusted to 5.5.
To each test tube of each stage of the successive dilutions of the test compound, a sufficient volume of bacterial inoculum was added so as to provide a final concentration of 10^4 CFU/ml (CFU=Colony Forming Units). The tubes were incubated for about 21 days at 37° C. The onset of turbidity in the control tube (free of drugs) was checked for on a regular basis. Once turbidity appeared in the control test tube, the results were recorded where the MIC value was defined as the lowest concentration of drug able to inhibit the growth of mycobacteria (note there was a total absence of turbidity in the first test tube of the successive dilution sequence). These tests were performed in triplicate for each test compound. As expected, the MIC for PZA was 100 μg/ml.

[6] = tested on: M. tuberculosis H37Ra; experiment: Antimycobacterial activity of free and encapsulated compounds in macrophage infected with Mycobacterium tuberculosis; assay type: cell-based; details: infected J774.A1 macrophage
Protocol: In evaluating the antimycobacterial activity, a conventional method (Anes et al., Nat Cell Biol, 2003) was employed using a cell culture of […] (cell line J774.A1).
Briefly, the macrophage was plated in a DMEM medium having a high glucose concentration and supplemented with 10% Foetal Bovine Serum, in 24 well tissue culture plates at 37° C. in a 5% carbon dioxide atmosphere. As soon as about 80% confluence was obtained, the cells were infected with M. tuberculosis H37Ra at a rate such that an inoculum concentration of 10^6 mycobacteria/ml per well was obtained.
After 3 hours of bacterial uptake, 1 to 5 bacillus per infected cell and a total of about 10E4-5 bacteria/ml were expected per well. Washing of the infected cultures with pH 7 buffer PBS was then carried out three times in order to eliminate all bacteria non internalised by the macrophage. Fresh DMEM medium was added with and without the test compound.
The incubation period was 7 days using fresh medium every 3 days. The compounds were added after 3 hours of internalization and remained in contact with the infected cells until fresh medium DMEM was added.
After 3 hours, 1 day, 3 days, 5 days and 7 days from the beginning of the infection, intracellular bacteria were recovered for lyses of the infected macrophage with a 1% IGEPAL solution (Sigma) in water. At this concentration, macrophage are lysed with no effect on the viability of the mycobacteria.
After successive dilutions of the lysate with water, the surviving bacteria were cultured in Middlebrook 7H10 medium supplemented with OADC (Difco). After about 2 weeks of incubation at 37° C. the Unity Forming Colonies (UFCs) were counted. Each test was carried out in triplicate in independent experiments.

[7] = lipid formulation DMPC:DMPG (9:1)
[8] = pH 7.4, Half-life (min) Free form
[9] = pH 7.4, Half-life (min) Vesicular form (DMPC)
[10] = Mycobacterium tuberculosis, H37RA, 504 h, pH 5.5, M. tuberculosis H37Ra, read-out: MIC

| Compound | EE (%) incorporation efficiency ([1]; lipid formulation DMPC) | EE (%) incorporation efficiency ([1]; lipid formulation DPPC) | EE (%) incorporation efficiency ([2]; lipid formulation DMPC) | half-life [3, 8] | half-life [3, 9] | half-life [4, 8] | half-life [4, 9] | MIC [5, 10] | intracellular bacterial growth after 7 days of infection [6] | other results |
| --- | --- | --- | --- | --- | --- | --- | --- | --- | --- | --- |
| CCCCCCCCCCOC(=O)c1ccccc1 [BD, decyl benzoate] | 94.1% | 93.4% |  |  |  |  |  |  |  |  |
| CCCCCCCCOC(=O)C=Cc1ccccc1 [CO, octyl cinnamate] | 92.2% | 94.5% |  |  |  |  |  |  |  |  |
| CCCCCCCCCCCCCCNC(=O)c1cnccn1 [Compound A14, N-tetradecyl pyrazinamide] | 95.2% | 96.4% |  |  |  |  |  |  |  | EE (%) incorporation efficiency [1, 7]: 98.6% |
| CCCCCCCCCCCCCCCCNC(=O)c1cnccn1 [Compound A16, hexadecyl pyrazinamide] | 97.0% |  |  |  |  |  |  |  |  | EE (%) incorporation efficiency ([1]; lipid formulation DMPG:DMPG 9:1): 98.4%; EE (%) incorporation efficiency ([1]; lipid formulation DPPM): 98.1% |
| CCCCCCCCCCCCOC(=O)c1cnccn1 [Compound C12, dodecyl pyrazinoate] | 94.7% | 93.1% | 95.6% | 0.25 h | 1.3 h | 0.0333 h | 0.9 h | 20 to 40 µg/mL (≈ 68.4 to 137 µM) | latency was observed | EE (%) incorporation efficiency ([1]; lipid formulation DMPC:DMPG (7:3)): 82.7%; EE (%) incorporation efficiency [1, 7]: 87.0%; EE (%) incorporation efficiency ([1]; lipid formulation DPPC:DPPG (7:3)): 90.2%; EE (%) incorporation efficiency ([1]; lipid formulation DPPC:DPPG (9:1)): 87.2%; fold lower MIC values than those for PZA and POA [5]: 10 fold; difference in bactericidal effect between DPPC and DMPC formulations ([6]; liposomal forms): no such significant differences; increase of bactericidal effect by encapsulation in liposomes relatively to free form ([6]; FIG. 1B): about 50%; bactericidal effect, comparison of compounds ([6]; free or vesicular form, FIG. 2A, 2B): greatest bactericidal effect |
| CCCCCCCCCCCCCCOC(=O)c1cnccn1 [Compound C14, tetradecyl pyrazinoate] |  |  | 98.2% | 0.317 h | 2.63 h | 0.0667 h | 2.82 h | 10 to 20 µg/mL (≈ 31.2 to 62.4 µM) |  | EE (%) incorporation efficiency ([2]; lipid formulation DPPC): 97.4%; fold lower MIC values than those for PZA and POA [5]: 10 fold |
| CCCCCCCCCCCCCCCCOC(=O)c1cnccn1 [Compound C16, hexadecyl pyrazinoate] |  |  | 97.3% | 1.13 h | 3.57 h | 0.35 h | 12.8 h | 20 to 40 µg/mL (≈ 57.4 to 115 µM) |  |  |
| O=C(O)c1cnccn1 [POA, pyrazinoic acid, reference compound] |  |  |  |  |  |  |  | 100 to 200 µg/mL (≈ 806 to 1610 µM) | bacteria recovered their ability of intracellular growth |  |
| NC(=O)c1cnccn1 [PZA, pyrazinamide, reference compound] |  |  |  |  |  |  |  | 100 µg/mL (≈ 812 µM) | bacteria recovered their ability of intracellular growth | MIC ([5]; M. tuberculosis H37Ra): 100 to 200 µg/mL |
